Results: ChEMBL document CHEMBL1151575, “J-104,123, a novel and orally-active inhibitor of squalene synthase: Stereoselective synthesis and cholesterol lowering effects in dogs” (Bioorg Med Chem Lett, 1996)

Experiments:
[1] = Area under the curve for compound was evaluated in dog at a dose of 20 mg/kg.; format: ADME, organism-based, Canis lupus familiaris; design: dose 20 mg/kg; details: in vivo
[2] = target: T1, Squalene synthase (Homo sapiens, UniProt P37268); test: Inhibitory activity against squalene synthase (SQS) obtained from HepG2 cells; format: cell-based
T1 sequence (P37268 whole entry): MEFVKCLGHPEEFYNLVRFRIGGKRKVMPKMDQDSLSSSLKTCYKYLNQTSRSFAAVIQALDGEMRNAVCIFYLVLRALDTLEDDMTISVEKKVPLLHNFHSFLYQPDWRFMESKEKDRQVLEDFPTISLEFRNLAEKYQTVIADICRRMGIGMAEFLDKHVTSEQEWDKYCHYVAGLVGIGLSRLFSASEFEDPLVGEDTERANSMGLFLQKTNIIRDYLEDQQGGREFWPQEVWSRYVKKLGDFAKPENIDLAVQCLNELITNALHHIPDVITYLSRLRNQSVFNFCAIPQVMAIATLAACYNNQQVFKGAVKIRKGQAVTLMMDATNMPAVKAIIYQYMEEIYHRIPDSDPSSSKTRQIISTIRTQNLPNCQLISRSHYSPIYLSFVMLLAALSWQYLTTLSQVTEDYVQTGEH

[3] = Area under the curve for compound was evaluated in dog at a dose of 10 mg/kg.; format: ADME, organism-based, Canis lupus familiaris; design: dose 10 mg/kg; details: in vivo

Row | AUC [1] [ng·h/mL] | IC50 [2] [nM] | AUC [3] [ng·h/mL] | Compound
1 | 54000 | 2.5 | – | C[C@@H](CC(=O)O)CC(=O)N[C@@H](C)[C@H](/C=C/c1ccc2ccccc2c1)Cc1ccc(Cl)c(Cl)c1
2 | – | 3.9 | 9900 | C[C@@H](CC(=O)O)CC(=O)N[C@@H](C)[C@@H](Cc1ccc(Cl)c(Cl)c1)c1ccc(-c2ccccc2)c(F)c1
3 | 900 | – | – | C[C@H](NC(=O)C[C@@H](CC(=O)O)C(=O)O)[C@@H](Cc1ccc(Cl)c(Cl)c1)c1ccc(-c2ccccc2)c(F)c1
